# From article PMC11554305, “Functional identification of soluble uric acid as an endogenous inhibitor of CD38” (eLife, 2024)
# What was measured:
# [1] = Moderate sUA supplementation in mice (plasma, whole blood, tissue and serum levels); format: in vivo, mouse; conditions: for Interference with whole blood NAD+ metabolism: OA or inosine alone, 1-day treatment, inflammatory conditions
# Procedure: Plasma sUA levels in mice were increased to the minimum physiological levels of humans by moderate sUA supplementation. For 1-day sUA supplementation, WT and CD38 KO mice received oral administration of saline, OA (1.5 g/kg), or OA (1.5 g/kg) plus inosine (1.5 g/kg), the gavage volume was 5 mL/kg. Drug suspension in saline was freshly prepared and warmed to 37°C before each treatment. The mice received the first treatment on the evening (19:00) of the first day and the second treatment on the morning (9:00) of the second day. For 3- or 7-day sUA supplementation, WT and CD38 KO mice received the same treatment twice daily from the evening of the first day to the morning of the last day. Four hours after the last treatment, the mice were sacrificed and whole blood, serum, plasma, and tissues were collected for metabolic studies. For immunological studies, mice were stimulated with different ligands 2 hr after the second treatment on the morning (9:00) of the second day.
# WT mice received oral administration of saline, OA, or OA plus inosine (1-day supplementation model, as described above). One day (28 hr) or 3 days (76 hr) after the second treatment, the mice were sacrificed and whole blood and plasma were collected.
# The collected whole blood samples were immediately diluted 10-fold in 5% ice-cold PCA and homogenized on ice. After 10 min centrifugation at 15,000 rpm, 4°C, the supernatant was subpackaged for measurement or –80°C storage. For NAD^+ measurement in whole blood, the supernatant was handled without freezing and thawing and was measured within 24 hr of sample collection. For measurement of plasma sUA, after sample collection, we immediately diluted the plasma with 5% ice-cold PCA, after vortex, samples were centrifuged at 15,000 rpm, 4°C for 10 min, the collected supernatant was used for the subsequent handling and measurement within 24 hr.
# After the collection of blood samples, the mice were immediately perfused with ice-cold sterile PBS. The tissue samples were collected, dried with tissue paper, and weighed. All the tissue samples were immediately homogenized in 5% ice-cold PCA on ice, then centrifuged at 15,000 rpm, 4°C for 10 min. The supernatant was collected and stored at –80°C until further handling for measurement (see LC-MS/MS analysis).
# As mentioned above, samples (cells, tissues, blood, or reaction buffer) were treated with ice-cold PCA, after extraction and centrifugation, the collected supernatant was appropriately diluted in 5% ice-cold PCA when applicable, and then was vortexed for 30 s and centrifuged at 15,000 rpm, 4°C for 5 min. Afterward, 30 μL supernatant was added into 200 μL 5 mM ammonium formate containing internal standards at indicated concentrations. Then, all the samples were vortexed for 30 s and centrifuged at 15,000 rpm, 4°C for 5 min again, the final supernatant was used for subsequent measurement. All the samples after handling were immediately analyzed in this study without freezing and thawing.
# The LC-MS/MS system consisted of a triple quadrupole LCMS-8050 (Shimadzu) and an LC-30A system (Shimadzu). NAD^+, NMN, and the N-cyclohexyl benzamide (NCB, internal standard, 5 ng/mL) were eluted on Altlantis HILIC Silica (2.1×150 mm, 5 μm) at 40°C using an isocratic mobile phase containing 60% water with 0.1% formic acid and 40% acetonitrile with 0.1% formic acid at 0.4 mL/min. The selected transitions of m/z were 664.10 → 136.10 for NAD^+, 334.95 → 123.15 for NMN, and 204.10 → 122.20 for NCB in positive ion mode. NAD^+ and NMN were measured independently in this study, as their peaks were hardly separated within a short time.
# sUA, cADPR, and FYU-981 (internal standard, 1 μM, Fuji Yakuhin Co., Ltd.) were eluted on CAPCELL PAK C8 TYPE UG 120 (2×150 mm, 5 μm) at 40°C. sUA and FYU-981 were separated using a gradient mobile phase containing water with 0.1% formic acid (A) and acetonitrile with 0.1% formic acid (B) at 0.4 mL/min. […]
# [2] = tested on: cLPS-induced systemic inflammation; assay: cLPS-induced systemic inflammation; format: in vivo, mouse; conditions: WT mice; for Effect on cLPS-induced systemic inflammation: OA or inosine alone, 1-day oral treatment
# Procedure: Plasma sUA levels in WT and CD38 KO mice were increased to the minimum physiological levels of humans by 1-day sUA supplementation (OA plus inosine). Two hours after the last treatment of OA, or OA plus inosine, the mice were intraperitoneally injected with sterile PBS or cLPS (2 or 20 mg/kg), the injection volume was 3 mL/kg. Four hours (20 mg/kg) or 6 hr (2 mg/kg) after stimulation, the mice were sacrificed and whole blood, plasma, and serum were collected.
# (§1) Human IL-1β, mouse IL-1β, IL-6, IL-18, TNF-α, and CXCL1 levels were measured according to the protocols provided by the manufacturer. Serum samples were diluted before ELISA when applicable. In this study, all the samples were frozen after collection and thawed before ELISA.
# [3] = tested on: MSU crystal-induced peritonitis; assay: MSU crystal-induced peritonitis; format: in vivo; conditions: WT mice, MSU crystals 2 mg/mouse; for Effect on MSU crystal-induced peritonitis: OA or inosine alone, 1-day oral treatment
# Procedure: Plasma sUA levels in WT and CD38 KO mice were increased to the minimum physiological levels of humans by 1-day sUA supplementation (OA plus inosine). Two hours after the last treatment of OA, or OA plus inosine, the mice were intraperitoneally injected with sterile PBS or MSU crystals (2 mg/mouse), and the injection volume was 200 μL/mouse. Six hours after stimulation, the mice were sacrificed and blood samples were collected. For each mouse, the peritoneal cavity was washed with 5 mL ice-cold sterile PBS, the supernatant was collected by centrifugation for subsequent ELISA, and cell pellets were used for total viable cell count by Trypan Blue staining. In brief, cell pellet from 1.5 mL of peritoneal lavage fluid was resuspended in RBC lysis buffer for 30 s, sterile PBS (ninefold volume) was added to terminate lysis. Afterward, the cells were centrifuged at 1000 rpm for 5 min and resuspended in sterile PBS for viable cell count. For neutrophil count, peritoneal lavage fluid was directly used for smears after appropriate dilution, and subsequently, Wright-Giemsa staining was performed according to the protocol provided by the manufacturer.
# as §1
# [4] = 6 hr, 1-day sUA supplementation, not in CD38 KO mice
Compound,Interference with whole blood NAD+ metabolism ([1]; WT mice),Effect on cLPS-induced systemic inflammation ([2]; cLPS 2 mg/kg),Effect on MSU crystal-induced peritonitis [3],"Effect on plasma sUA levels ([1]; mice, short-term administration of OA alone)","Whole blood NAD+ levels ([1]; 1- or 3-day moderate sUA supplementation (OA plus inosine), WT mice, not in CD38 KO mice)","cADPR production in whole blood ([1]; 1-day sUA supplementation, inflammatory conditions (cLPS 2 mg/kg), not under non-inflammatory conditions)",NAD+ levels in the brain and heart ([1]; 7-day sUA-supplementation model),"Plasma sUA and whole blood NAD+ after sUA release ([1]; WT mice, 1-day or 3-day release after 1-day supplementation)","concentration at 4 h ([1]; mouse, plasma, mice, oral OA 1.5 g/kg plus inosine 1.5 g/kg, read-out: Plasma sUA levels in the sUA-supplementation models) [µM]","NMN levels in vivo ([1]; sUA supplementation, whole blood)",Serum IL-1β production ([1]; sUA-supplementation models within 7 days),"cLPS-induced production of serum IL-1β and IL-18 ([2]; cLPS 2 mg/kg, 6 hr, 1-day sUA supplementation (OA plus inosine), abrogated in CD38 KO mice)","Serum TNF-α levels ([2]; cLPS 2 mg/kg, 6 hr, 1-day sUA supplementation)","High-dose cLPS-induced systemic inflammation ([2]; cLPS 20 mg/kg, 4 hr)","Production of IL-1β and IL-6, peritoneal lavage fluid [3, 4]","Recruitment of viable cells and neutrophils, peritoneal lavage fluid [3, 4]"
"O=c1[nH]cnc2c1ncn2[C@@H]1O[C@H](CO)[C@@H](O)[C@H]1O [Inosine, inosine, reference compound]",had no interference,hardly affected,hardly affected,,,,,,,,,,,,,
"O=C(O)c1nc(=O)[nH]c(=O)[nH]1 [OA, oxonic acid, reference compound]",had no interference,hardly affected,hardly affected,failed to increase plasma sUA levels,,,,,,,,,,,,
"O=c1[nH]c(=O)c2[nH]c(=O)[nH]c2[nH]1 [sUA, uric acid]",,,,,slightly but significantly increased,decrease in cADPR production,appeared to be elevated,gradually returned to their initial levels,~120,minor effect on NMN levels,did not show an increase,suppressed,without affecting,hardly limited,reduced the production of IL-1β and IL-6,inhibited the recruitment of viable cells and neutrophils
